# Results from ChEMBL document CHEMBL4699592, “Nature-Inspired (di)Azine-Bridged Bisindole Alkaloids with Potent Antibacterial In Vitro and In Vivo Efficacy against Methicillin-Resistant Staphylococcus aureus” (J Med Chem, 2020).
# Active and inactive are the calls of the source. The calls are words filed in the database; no cut-off is given here.
# Key:
# [1] = tested on: Staphylococcus aureus; assay: Antibacterial activity against vancomycin-sensitive Staphylococcus aureus T144 infected in Balb/c mouse assessed as reduction in bacterial burden at 20 mg/kg applied topically measured after 12 days by colony counting method; type: functional, organism-based; conditions: time 12.0 day
# [2] = tested on: Staphylococcus aureus; assay: Antibacterial activity against vancomycin-sensitive Staphylococcus aureus T144 infected in Balb/c mouse assessed as increase in wound healing at 20 mg/kg applied topically measured daily for 12 days by microscopic analysis; type: functional, organism-based; conditions: time 12.0 day
# [3] = tested on: Staphylococcus aureus; assay: Antibacterial activity against vancomycin-sensitive Staphylococcus aureus T144 infected in Balb/c mouse peritonitis-sepsis model assessed as increase in survival at 20 mg/kg, ip measured for 48 hrs; type: functional, organism-based
# [4] = tested on: Acinetobacter baumannii; assay: Antibacterial activity against Acinetobacter baumannii ATCC BAA-1605 at 0.78 to 100 uM after 24 hrs by broth microdilution method; type: functional, organism-based; conditions: dose microM 0.78-100, time 24.0 hrs
# [5] = tested on: Mycobacterium tuberculosis; assay: Antibacterial activity against Mycobacterium tuberculosis H37Rv at 0.78 to 100 uM after 5 days by resazurin dye based fluorescence assay; type: functional, organism-based; conditions: dose microM 0.78-100, time 5.0 day
# [6] = tested on: Staphylococcus aureus; assay: Antibacterial activity against […] Staphylococcus aureus ATCC 700699 after 24 hrs by broth microdilution method; type: functional
# [7] = tested on: Enterococcus faecium; assay: Antibacterial activity against vancomycin-resistant Enterococcus faecium ATCC 35667 at 0.78 to 100 uM after 24 hrs by broth microdilution method; type: functional, organism-based; conditions: dose microM 0.78-100, time 24.0 hrs
# [8] = tested on: Enterococcus faecium; assay: Antibacterial activity against vancomycin-resistant Enterococcus faecium ATCC 700221 at 0.78 to 100 uM after 24 hrs by broth microdilution method; type: functional, organism-based; conditions: dose microM 0.78-100, time 24.0 hrs
# [9] = tested on: Enterococcus faecalis; assay: Antibacterial activity against Enterococcus faecalis ATCC 51299 at 0.78 to 100 uM after 24 hrs by broth microdilution method; type: functional, organism-based; conditions: dose microM 0.78-100, time 24.0 hrs
# [10] = tested on: Enterococcus faecalis; assay: Antibacterial activity against Enterococcus faecalis ATCC 29212 at 0.78 to 100 uM after 24 hrs by broth microdilution method; type: functional, organism-based; conditions: dose microM 0.78-100, time 24.0 hrs
# [11] = tested on: Staphylococcus aureus; assay: Antibacterial activity against methicillin susceptible Staphylococcus aureus ATCC 25923 at 0.78 to 100 uM after 24 hrs by broth microdilution method; type: functional, organism-based; conditions: dose microM 0.78-100, time 24.0 hrs
# [12] = Selectivity index, ratio of IC50 for cytotoxicity against human THP-1 cells to MIC90 for antibacterial activity against […] Staphylococcus aureus ATCC 700699; type: toxicity, cell-based; conditions: read-out: Selectivity Index
# [13] = tested on: MRC5; assay: Cytotoxicity against human MRC5 cells assessed as reduction in cell viability at >=12.5 uM measured after 48 hrs by resazurin dye based fluorescence assay; conditions: mrc5, 48 h
# [14] = tested on: THP-1; assay: Cytotoxicity against human THP-1 cells assessed as reduction in cell viability at >=12.5 uM measured after 48 hrs by resazurin dye based fluorescence assay; conditions: thp-1, 48 h
# [15] = Selectivity index, ratio of IC50 for cytotoxicity against human MRC5 cells to MIC90 for antibacterial activity against […] Staphylococcus aureus ATCC 700699; type: toxicity, cell-based; conditions: read-out: Selectivity Index
# [16] = tested on: HEK293; assay: Cytotoxicity against HEK293 cells assessed as reduction in cell viability at >12.5 uM measured after 48 hrs by resazurin dye based fluorescence assay; conditions: human, hek293, 48 h
# [17] = tested on: HepG2; assay: Cytotoxicity against human HepG2 cells assessed as reduction in cell viability at >12.5 uM measured after 48 hrs by resazurin dye based fluorescence assay; conditions: hepg2, 48 h
# [18] = Cytotoxicity against human CLS-54 cells assessed as reduction in cell viability at >12.5 uM measured after 48 hrs by resazurin dye based fluorescence assay; conditions: cls-54, 48 h
# [19] = tested on: Staphylococcus aureus; assay: Bactericidal activity against […] Staphylococcus aureus ATCC 700699 assessed as reduction in bacterial viability at 5 fold MIC incubated for 6 hrs by time kill assay relative to control; type: functional
# [20] = tested on: Staphylococcus aureus; assay: Bactericidal activity against […] Staphylococcus aureus ATCC 700699 assessed as colony forming units at 5 fold MIC measured after 24 hrs by time kill assay; type: functional
# [21] = tested on: Staphylococcus aureus; assay: Antibacterial activity against methicillin-resistant Staphylococcus aureus USA300 LAC at 0.15 to 25 uM incubated for 24 hrs under low glucose medium by resazurin dye based fluorescence assay; type: functional, organism-based; conditions: dose microM 0.15-25, time 24.0 hrs
# [22] = tested on: Staphylococcus aureus; assay: Antibacterial activity against methicillin-resistant Staphylococcus aureus USA300 LAC at 0.15 to 25 uM incubated for 24 hrs under low pyruvate containing medium by resazurin dye based fluorescence assay; type: functional, organism-based; conditions: dose microM 0.15-25, time 24.0 hrs
# [23] = tested on: Staphylococcus aureus; assay: Antibacterial activity against methicillin-resistant pyruvate kinase deficient Staphylococcus aureus USA300 LAC at 0.15 to 25 uM incubated for 24 hrs under low pyruvate containing medium by resazurin dye based fluorescence assay; type: functional, organism-based; conditions: dose microM 0.15-25, time 24.0 hrs
# [24] = tested on: Staphylococcus aureus; assay: Inhibition of Staphylococcus aureus ATCC 700699 N-terminal His6-tagged pyruvate kinase expressed in Escherichia coli NiCo21(DE3) at 12.5 uM using phosphoenolpyruvate as substrate measured for 5 mins by LDH-coupled assay
# [25] = molecular target: Pyruvate kinase PKM (Oryctolagus cuniculus) (UniProt P11974); assay: Inhibition of rabbit muscle pyruvate kinase up to 12.5 uM using phosphoenolpyruvate as substrate measured for 5 mins by LDH-coupled assay; conditions: dose microM <=12.5, time 5.0 min
# [26] = tested on: Pseudomonas aeruginosa; assay: Antibacterial activity against Pseudomonas aeruginosa ATCC 27853 measured after 24 hrs by broth microdilution method; type: functional
# [27] = tested on: Acinetobacter baumannii; assay: Antibacterial activity against Acinetobacter baumannii ATCC BAA-1605 after 24 hrs by broth microdilution method; type: functional
# [28] = tested on: Escherichia coli; assay: Antimicrobial activity against Escherichia coli ATCC BAA 2469 after 24 hrs by broth microdilution assay; type: functional
# [29] = tested on: Klebsiella pneumoniae; assay: Antibacterial activity against Klebsiella pneumoniae ATCC 700603 after 24 hrs by broth microdilution method; type: functional
# [30] = Solubility of compound in pH 7.7 PBS buffer; type: physicochemical
# [31] = tested on: Staphylococcus aureus; assay: Bactericidal activity against […] Staphylococcus aureus ATCC 700699 assessed as colony forming unit at 5 fold MIC incubated for 6 hrs followed by compound washout and subsequent compound addition by time kill assay; type: functional
# [32] = Stability of compound in pH 7.7 DMSO:PBS solution at 0.19 uM measured after 6 hrs; type: physicochemical; conditions: buffer, pH 7.7, 6 h
# [33] = tested on: Staphylococcus aureus; assay: Antibacterial activity against methicillin susceptible Staphylococcus aureus ATCC 25923 after 24 hrs by broth microdilution method; type: functional
# [34] = tested on: Cell membrane; assay: Induction of cell membrane permeabilization in methicillin resistant Staphylococcus aureus ATCC 700699 measured at 5 mins interval for 2 hrs by propidium iodide staining based fluorescence assay; type: subcellular
# [35] = tested on: Cell membrane; assay: Induction of cell membrane permeabilization in GFP-expressing Staphylococcus aureus ATCC 700699 assessed as increase in cellular ATP leakage at 5 fold MIC measured after 0.5 hrs by Bactiter-glo assay; type: subcellular
# Sequence of Pyruvate kinase PKM (Oryctolagus cuniculus) (P11974 whole entry): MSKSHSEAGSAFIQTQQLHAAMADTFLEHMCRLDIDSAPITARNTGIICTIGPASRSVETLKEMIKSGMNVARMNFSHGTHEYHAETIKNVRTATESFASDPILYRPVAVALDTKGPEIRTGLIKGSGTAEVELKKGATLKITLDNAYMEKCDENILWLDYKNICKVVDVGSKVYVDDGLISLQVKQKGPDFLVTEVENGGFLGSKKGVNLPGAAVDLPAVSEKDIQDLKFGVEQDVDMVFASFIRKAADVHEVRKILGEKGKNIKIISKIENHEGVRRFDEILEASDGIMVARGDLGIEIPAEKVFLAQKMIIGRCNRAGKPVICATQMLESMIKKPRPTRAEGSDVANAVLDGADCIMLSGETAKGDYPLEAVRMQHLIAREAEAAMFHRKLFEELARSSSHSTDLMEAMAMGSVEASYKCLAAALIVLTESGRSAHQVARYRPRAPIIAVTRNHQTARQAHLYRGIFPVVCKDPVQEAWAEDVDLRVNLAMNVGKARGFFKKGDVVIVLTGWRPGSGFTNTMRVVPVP
compound,measurement,setting,value
CN[C@H](CC(C)C)C(=O)N[C@H]1C(=O)N[C@@H](CC(N)=O)C(=O)N[C@H]2C(=O)N[C@H]3C(=O)N[C@H](C(=O)N[C@H](C(=O)O)c4cc(O)cc(O)c4-c4cc3ccc4O)[C@H](O)c3ccc(c(Cl)c3)Oc3cc2cc(c3O[C@@H]2O[C@H](CO)[C@@H](O)[C@H](O)[C@H]2O[C@H]2C[C@](C)(N)[C@H](O)[C@H](C)O2)Oc2ccc(cc2Cl)[C@H]1O,Activity,[1],Active
same,Activity,[2],Active
same,Activity,[3],Active
c1cc(-c2c[nH]c3ccccc23)nc(-c2c[nH]c3ccccc23)c1,Activity,[4],inactive
same,Activity,[5],inactive
same,MIC90,[6],> 100 µM
COc1ccc2[nH]cc(-c3cccc(-c4c[nH]c5ccc(OC)cc45)n3)c2c1,Activity,[4],inactive
same,Activity,[5],inactive
same,MIC90,[6],12.5 µM
Oc1ccc2[nH]cc(-c3cnc(-c4c[nH]c5ccc(O)cc45)cn3)c2c1,Activity,[7],inactive
same,Activity,[8],inactive
same,Activity,[9],inactive
same,Activity,[10],inactive
same,Activity,[4],inactive
same,Activity,[5],inactive
same,Activity,[11],inactive
same,MIC90,[6],> 100 µM
c1cc(-c2c[nH]c3ncccc23)nc(-c2c[nH]c3ncccc23)c1,Activity,[4],inactive
same,Activity,[5],inactive
same,MIC90,[6],> 100 µM
Clc1ccc2[nH]cc(-c3ccnc(-c4c[nH]c5ccc(Cl)cc45)n3)c2c1,selectivity ratio,[12],32
same,Activity,[13],Toxic
same,Activity,[14],Toxic
same,Activity,[7],Active
same,Activity,[8],Active
same,Activity,[9],Active
same,Activity,[10],Active
same,Activity,[4],Active
same,Activity,[5],Active
same,Activity,[11],Active
same,MIC90,[6],3.13 µM
same,selectivity ratio,[15],32
same,Activity,[16],Toxic
same,Activity,[17],Toxic
same,Activity,[18],Toxic
same,fold change (FC),[19],10000
same,Activity,[20],<10 CFU/ml
same,Activity,[21],Active
same,Activity,[22],Active
same,Activity,[23],Active
same,inhibition,[24],inactive
same,inhibition,[25],inactive
c1ccc2c(-c3ccc(-c4c[nH]c5ccccc45)nn3)c[nH]c2c1,Activity,[4],inactive
same,Activity,[5],inactive
same,MIC90,[6],> 100 µM
Brc1ccc2c(-c3cnc(-c4c[nH]c5cc(Br)ccc45)cn3)c[nH]c2c1,Activity,[4],inactive
same,Activity,[5],inactive
same,MIC90,[6],> 100 µM
COLISTIN,MIC,[26],0.39 µM
same,MIC,[27],0.78 µM
same,MIC,[28],0.78 µM
same,MIC,[29],1.56 µM
Clc1ccc2[nH]cc(-c3ccc(-c4c[nH]c5ccc(Cl)cc45)nn3)c2c1,selectivity ratio,[12],8
same,Activity,[13],Toxic
same,Activity,[14],Toxic
same,Activity,[4],inactive
same,Activity,[5],inactive
same,MIC90,[6],0.78 µM
same,selectivity ratio,[15],8
same,fold change (FC),[19],100
same,Activity,[20],<10 CFU/ml
same,Activity,[21],Active
same,Activity,[22],Active
same,Activity,[23],Active
Brc1ccc2[nH]cc(-c3cnc(-c4c[nH]c5ccc(Br)cc45)cn3)c2c1,selectivity ratio,[12],8
same,Activity,[13],Toxic
same,Activity,[14],Toxic
same,Activity,[4],inactive
same,Activity,[5],inactive
same,MIC90,[6],1.56 µM
same,solubility,[30],Insoluble
same,selectivity ratio,[15],8
same,fold change (FC),[19],10000
same,Activity,[21],Active
same,Activity,[22],Active
same,Activity,[23],Active
COc1ccc2[nH]cc(-c3cnc(-c4c[nH]c5ccc(OC)cc45)nc3)c2c1,Activity,[7],inactive
same,Activity,[8],inactive
same,Activity,[9],inactive
same,Activity,[10],inactive
same,Activity,[4],inactive
same,Activity,[5],inactive
same,Activity,[11],inactive
same,MIC90,[6],50 µM
COc1ccc2[nH]cc(-c3cnc(-c4c[nH]c5ccc(OC)cc45)cn3)c2c1,Activity,[7],inactive
same,Activity,[8],inactive
same,Activity,[9],inactive
same,Activity,[10],inactive
same,Activity,[4],inactive
same,Activity,[5],inactive
same,Activity,[11],inactive
same,MIC90,[6],> 100 µM
Fc1ccc2[nH]cc(-c3cnc(-c4c[nH]c5ccc(F)cc45)nc3)c2c1,Activity,[4],inactive
same,Activity,[5],inactive
same,MIC90,[6],12.5 µM
Clc1ccc2[nH]cc(-c3cnc(-c4c[nH]c5ccc(Cl)cc45)cn3)c2c1,selectivity ratio,[12],32
same,Activity,[13],Toxic
same,Activity,[14],Toxic
same,Activity,[4],inactive
same,Activity,[5],inactive
same,MIC90,[6],0.39 µM
same,solubility,[30],Insoluble
same,selectivity ratio,[15],32
same,fold change (FC),[19],100
same,Activity,[20],100 CFU/ml
same,Activity,[31],100 CFU/ml
same,Stabilty,[32],Stable
c1ccc2c(-c3cnc(-c4c[nH]c5ccccc45)cn3)c[nH]c2c1,Activity,[4],inactive
same,Activity,[5],inactive
same,MIC90,[6],> 100 µM
Brc1cc2[nH]cc(-c3cnc(-c4c[nH]c5cc(Br)c(Br)cc45)cn3)c2cc1Br,Activity,[4],inactive
same,Activity,[5],inactive
same,MIC90,[6],1.56 µM
same,MIC,[33],1.56 µM
Fc1ccc2[nH]cc(-c3cnc(-c4c[nH]c5ccc(F)cc45)cn3)c2c1,Activity,[4],inactive
same,Activity,[5],inactive
same,MIC90,[6],> 100 µM
Clc1ccc2[nH]cc(-c3cncc(-c4c[nH]c5ccc(Cl)cc45)n3)c2c1,Activity,[4],inactive
same,Activity,[5],inactive
same,MIC90,[6],0.39 µM
same,solubility,[30],Insoluble
CC(=O)NC[C@H]1CN(c2ccc(N3CCOCC3)c(F)c2)C(=O)O1,Activity,[34],inactive
same,Activity,[35],inactive
Oc1ccc2[nH]cc(-c3cnc(-c4c[nH]c5ccc(O)cc45)nc3)c2c1 [HYRTINADINE A],Activity,[7],inactive
same,Activity,[8],inactive
same,Activity,[9],inactive
same,Activity,[10],inactive
same,Activity,[4],inactive
same,Activity,[5],inactive
same,Activity,[11],inactive
same,MIC90,[6],> 100 µM
c1ccc2c(-c3cnc(-c4c[nH]c5ccccc45)nc3)c[nH]c2c1,Activity,[4],inactive
same,Activity,[5],inactive
same,MIC90,[6],12.5 µM
COc1c(N2C[C@@H]3CCCN[C@@H]3C2)c(F)cc2c(=O)c(C(=O)O)cn(C3CC3)c12,Activity,[34],inactive
same,Activity,[35],inactive
